Data on six molecules can be found in patent US12583818B2 (DAEGU-GYEONGBUK MEDICAL INNOVATION FOUNDATION, priority 2020, dated 2026).

The target in one assay is T1, Pin1 (Homo sapiens, UniProt Q13526).
T1 construct: purchased Anaspec
The assay can be described thus: Evaluation of Pin1 enzyme inhibitory activity (Sensolyte Green Pin1 assay kit). Type of assay: biochemical. An outline of the steps: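 Pin1 activity was measured with a fluorogenic kit assay (Sensolyte Green) using substrate prepared at 1 μM and protein at 50 μg/ml, both pre-mix concentrations. Compound working solutions were 100, 10, 1 or 0.1 μM, and reactions ran 2 h at room temperature in the dark, read at 490/520 nm. Inhibition was graded A–D by concentration.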

For assay [1], the system named is MDA-MB 231 triple negative breast cancer cell line. The assay can be described thus: MDA-MB 231 protein expression inhibition (Western blotting, cycline D1 vs Vinculin). The note with it: Homo sapiens, compound 10 μM, 72 hours, cycline D1 Western blot, read-out: MBA-MB-231 (amount of the protein compared to the DMSO-treated control group). Format: cell-based. On the procedure:
In order to confirm the ability of the compound represented by formula 1 according to the present invention to inhibit the protein expression of MDA-MB 231 triple negative breast cancer cell line, the following experiment was performed, and the results are shown in Table 3 below.
MDA-MB-231 cells were cultured in a 5% CO2 incubator at 37° C. using RPMI medium supplemented with 10% FBS and 1% penicillin/streptomycin.
The cells were washed with PBS once a day, and then replaced with a new medium. The cells grown at the density of at least 90% 1 day before the experiment were detached using trypsin/EDTA, and then plated at the density of 100,000 per well in a 6-well plate.
On the next day of culture, the compound prepared in each example was treated at a concentration of 10 μM, and DMSO was treated at a concentration of 0.1% of the total as the control, followed by incubation for 72 hours. After 72 hours, the cells were washed twice with PBS, collected by scraping, and centrifuged at 13,000 rpm for 3 minutes to remove all the supernatant and only cells were taken.
RIPA buffer (containing 1× protease inhibitor and phosphatase inhibitor) was added to the prepared cells (80 μl/well), and the plate was shaken once every 5 minutes to disrupt the cells for a total of 15 minutes. The disrupted cells were centrifuged at 13,000 rpm for 15 minutes to collect only the supernatant protein. The obtained protein was quantified using a BCA protein quantification kit (Pierece, MA, USA), and a total of 10 μg of the protein was used for Western blotting.
The protein sample was isolated by 10% SDS-PAGE, and transferred to a PVDF membrane. Anti-human cycline D1 antibody (Cell signal) and anti-Vinculin antibody were bound to the protein sample, and the expression of the protein was measured by using an ECL reagent and LAS4000 equipment. The measurement results were quantified and generalized using ImageJ. The results are shown in Table 3 below by dividing the grades A to D according to the amount of the protein compared to the DMSO-treated control group.

Assay [2] relates to MCF7 cells (breast cancer cells). In words: Cell viability of MCF7 cells (Cell-titer Glo). Type of assay: cell-based. The note with it: Homo sapiens. On the procedure: (§1) In order to confirm the inhibitory effect of the compound represented by formula 1 according to the present invention on the growth of MCF7, MCF7-SP, A2780 or A2780-SP cells, the following experiment was performed, and the results are shown in Tables 4 and 5 below.
MCF7 cells (breast cancer cells) were plated in a 96-well plate at the density of 3000 viable cells per well, and cultured in DMEM/High glucose medium supplemented with 10% FBS and 1% penicillin/streptomycin.
On the next day of culture, the cells were treated with the compound of Example 71, 76, 80, 84, 92, 99, 100 or 119, followed by culture for 3 days. Cell viability was evaluated by Cell-titer Glo (Promega, WC, USA), and luciferase activity was detected using a Tecan plate reader (Biocompare, USA).

The test system of assay [3] is MCF7-SP cells (breast cancer stem cells). The assay can be described thus: Sphere cell viability of MCF7-SP cells (Cell-titer Glo). Format: cell-based. Here is the method: as §1
On the other hand, MCF7-SP cells (breast cancer stem cells) were plated in an Ultra-Low Attachment round bottom 96-well plate (corning) at the density of 1,500 viable cells per well, and cultured in cancer stem cell medium. The cancer stem cell medium is composed of the neurobasal medium supplemented with 20 ng/ml of bFGF, 10 ng/ml of EGF, 2.5 […], HEPES, Glutamax and B27.
On the next day of culture, the cells were treated with the compound of Example 71, 76, 80, 84, 92, 99, 100 or 119, followed by culture for 8 days. The medium containing the compound was added thereto once again on the 4th day. Sphere cell viability was evaluated by Cell-titer Glo (Promega, WC, USA), and luciferase activity was detected using a Tecan plate reader (Biocompare, USA).

The subject of assay [4] is A2780 cells (ovarian cancer cells). The assay can be described thus: Cell viability of A2780 cells (Cell-titer Glo). Type of assay: cell-based. The following applies: Homo sapiens. Put shortly:
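A2780 ovarian cancer cells seeded at 3000 viable cells/well in RPMI-1640 with 10% FBS, dosed the next day and grown 3 days. Viability measured by Cell-titer Glo luminescence.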

Assay [5] relates to A2780-SP cells (ovarian cancer stem cells). In words: Sphere cell viability of A2780-SP cells (Cell-titer Glo). Type of assay: cell-based. Put shortly: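 A2780-SP ovarian cancer stem cells grown as spheres in ultra-low-attachment wells (1,500 cells/well) in neurobasal stem-cell medium with bFGF, EGF, B27. Compound added the day after plating, re-dosed on day 4, 8-day culture total; viability by CellTiter-Glo luminescence.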

Setting [6] is: Table 2, read-out: concentration at which Pin1 inhibitory activity was exhibited.
Where [7] appears, read: concentration at which the Pin1 enzyme activity is inhibited, 2 hours at room temperature, fluorescence 490 nm/520 nm, read-out: Pin 1 inhibition.
The mark [8] stands for this setting: 72 h, cell viability, culture for 3 days, read-out: MCF7.
Setting [9] is: MCF7, text summary of Table 4, read-out: MCF7 cell concentration.
[10] abbreviates: 192 h, sphere cell viability, culture for 8 days, read-out: MCF7-SP.
The mark [11] stands for this setting: text summary of Table 4, read-out: MCF7-SP cell concentration.
The mark [12] stands for this setting: 72 h, cell viability, culture for 3 days, read-out: A2780.
[13] abbreviates: A2780, Table 5, read-out: A2780 cell concentration.
Setting [14] is: 192 h, sphere cell viability, culture for 8 days, read-out: A2780-SP.
Setting [15] is: Table 5, read-out: the concentration (second list of b710, cell line not named; matches A2780-SP column).

The structures appear in SMILES notation. pIC50: −log10 of the molar value. Like-named read-outs stand apart in the source and are kept apart here.

T1 sequence (Q13526 whole entry): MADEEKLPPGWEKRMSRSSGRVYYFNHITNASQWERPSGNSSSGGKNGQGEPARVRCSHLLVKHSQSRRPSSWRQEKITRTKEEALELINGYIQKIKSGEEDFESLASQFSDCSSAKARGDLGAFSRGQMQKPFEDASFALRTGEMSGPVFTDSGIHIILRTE

In the case of `O=S(=O)(NCCCc1c[nH]c2ccc(Cl)cc12)c1ccc(OCCCN2CCNCC2)cc1` [Example 70, N-(3-(5-chloro-1H-indol-3-yl)propyl)-4-(3-(piperazin-1-yl)propoxy)benzenesulfonamide], the pIC50 is greater than 6.00 on Pin1 (setting [6]); greater than 6.00 on Pin1 (setting [7]); 5.00 to 6.00 in assay [2] (setting [8]); greater than 5.00 in assay [2] (setting [9]); 5.00 to 6.00 in assay [3] (setting [10]); greater than 5.00 in assay [3] (setting [11]). Also, the pIC50 in assay [4] (setting [12]) was 5.00 to 6.00; in assay [4] (setting [13]), greater than 5.00; in assay [5] (setting [14]), greater than 6.00; in assay [5] (setting [15]), greater than 6.00. In assay [1], the activity at 10 µM is 0 to 35%.

Consider `O=S(=O)(NCCCc1c[nH]c2ccc(Cl)cc12)c1ccc(OCCCN2CCC(O)CC2)cc1` [Example 75, N-(3-(5-chloro-1H-indol-3-yl)propyl)-4-(3-(4-hydroxypiperidin-1-yl)propoxy)benzenesulfonamide], for which the pIC50 at Pin1 (setting [6]) is greater than 6.00; on Pin1 (setting [7]), greater than 6.00; in assay [2] (setting [8]), 5.00 to 6.00; in assay [2] (setting [9]), greater than 5.00; in assay [3] (setting [10]) it was less than 5.00; in assay [4] (setting [12]), 5.00 to 6.00. Further, the pIC50 in assay [4] (setting [13]) was greater than 5.00; in assay [5] (setting [14]), 5.00 to 6.00. Further, the activity at 10 µM in assay [1] fell in the range of 0 to 35%.

`O=S(=O)(NCCCc1c[nH]c2ccc(Cl)cc12)c1ccc(OCCCN2CCNCC2)nc1` [Example 79, N-(3-(5-chloro-1H-indole-3-yl)propyl)-6-(3-(piperazine-1-yl)propoxy)pyridine-3-sulfonamide]: the pIC50 was greater than 6.00 on Pin1 (setting [6]); greater than 6.00 at Pin1 (setting [7]); less than 5.00 in assay [2] (setting [8]); less than 5.00 in assay [3] (setting [10]); less than 5.00 in assay [4] (setting [12]); greater than 6.00 in assay [5] (setting [14]). Moreover, in assay [5] (setting [15]), the pIC50 was greater than 6.00. Further, the activity at 10 µM in assay [1] lay in the range of 0 to 35%.

Consider `CN1CCCN(CCCOc2ccc(S(=O)(=O)NCCCc3c[nH]c4ccc(Cl)cc34)cc2)CC1` [Example 83, N-(3-(5-chloro-1H-indol-3-yl)propyl)-4-(3-(4-methyl-1,4-diazepan-1-yl)propoxy)benzenesulfonamide], for which the pIC50 at Pin1 (setting [6]) was greater than 6.00; on Pin1 (setting [7]), greater than 6.00; in assay [2] (setting [8]), 5.00 to 6.00; in assay [2] (setting [9]), greater than 5.00; in assay [3] (setting [10]), 5.00 to 6.00; in assay [3] (setting [11]) it was greater than 5.00. Moreover, the pIC50 is 5.00 to 6.00 in assay [4] (setting [12]), greater than 5.00 in assay [4] (setting [13]), greater than 6.00 in assay [5] (setting [14]) and greater than 6.00 in assay [5] (setting [15]). Besides, in assay [1], the activity at 10 µM lay within 0 to 35%.

Take `O=S(=O)(NCCCc1c[nH]c2ccc(Cl)cc12)c1ccc(CCCCN2CCNCC2)cc1` [Example 91, N-(3-(5-chloro-1H-indol-3-yl)propyl)-4-(4-(piperazin-1-yl)butyl)benzenesulfonamide]: the pIC50 at Pin1 (setting [6]) is greater than 6.00; on Pin1 (setting [7]), greater than 6.00; in assay [2] (setting [8]), 5.00 to 6.00; in assay [2] (setting [9]), greater than 5.00; in assay [3] (setting [10]) it was 5.00 to 6.00; in assay [3] (setting [11]), greater than 5.00. Further, the pIC50 in assay [4] (setting [12]) was less than 5.00; in assay [5] (setting [14]) it was greater than 6.00; in assay [5] (setting [15]), greater than 6.00. The activity at 10 µM in assay [1] was 0 to 35%.

On to `CN1CCN(c2cccc(Nc3ccc(S(=O)(=O)NCCCc4c[nH]c5ccc(Cl)cc45)cc3)c2)CC1` [Example 123, N-(3-(5-chloro-1H-indole-3-yl)propyl)-4-((3-(4-methylpiperazine-1-yl)phenyl)amino)benzenesulfonamide], for which the pIC50 is greater than 6.00 at Pin1 (setting [6]); greater than 6.00 on Pin1 (setting [7]); 5.00 to 6.00 in assay [4] (setting [12]); greater than 5.00 in assay [4] (setting [13]); 5.00 to 6.00 in assay [5] (setting [14]). For the same molecule, the activity at 10 µM in assay [1] was in the range of 70 to 100%.
